How the values were obtained:
MECs = assay: Determination of intracellular superoxide radicals (DHE oxidation, flow cytometry) in ActD-treated MECs; type: cell-based, mouse; details: 10 μM pretreatment, ActD 100 ng/mL; nearly two-fold ActD-induced increase
Experimental: Determination of intracellular superoxide radicals Oxidation-dependent fluorogenic dye, dihydroethidium (“DHE”, Molecular Probes) was used to evaluate intracellular production of superoxide radicals. DHE is cell permeable and, in the presence of superoxide, is oxidized to fluorescent ethidium which intercalates into DNA. The fluorescence of ethidium was measured using a FACscan (BECTON-DICKINSON, Rutherford, N.J.) flow cytometer, equipped with a 488-nm argon ion laser and supplied with the Cell Quest software. Mean fluorescence intensity from 10,000 cells were acquired using a 585-nm bandpass filter (FL-2 channel).

caspases 3 and 7 = assay: Caspases 3 and 7 activity assay in rat gut mucosa homogenate after hemorrhagic shock; type: in vivo; details: intraluminal 10 μM versus vehicle
Experimental: After 2 h of shock, the animals were euthanized with an intracardiac KCl bolus injection. The ileum was rapidly excised from the ileocecal valve to the most proximal gut segment. The tips of each segment were discarded. In order to assay caspases 3 and 7 activity and phospholipids peroxidation, mucosa samples were collected from gut segments immediately after hemorrhage and stored at −80° C. For permeability measurements, each segment was converted into an everted gut sac, as previously described by Wattanasirichaigoon et al., see Wattanasirichaigoon, S. et al., Effect of mesenteric ischemia and reperfusion or hemorrhagic shock on intestinal mucosal permeability and ATP content in rats, SHOCK, 12:127-133 (1999).
Caspases 3 and 7 activity assay. Caspases 3 and 7 activity was measured using a commercially available assay kit, CASPASE GLO™ 3/7 assay kit (PROMEGA, Madison, Wis.). […] At the end of incubation period, the luminescence of each sample was measured using a plate reading chemiluminometer (ML1000, DYNATECH LABORATORIES, Horsham, Pa.). Activity of caspases 3 and 7 was expressed as luminescence intensity (arbitrary units per mg protein). Protein concentrations were determined using the BIORAD assay (BIO-RAD LABORATORIES, Inc., Hercules, Calif.). […]

[1] = tested on: Caco-2BBe human enterocyte-like monolayers; assay: Permeability of Caco-2 monolayers exposed to menadione (FD4 clearance); type: cell-based; details: 10 μM apical, menadione 50 μM, 6 hours
Experimental: Cells. Caco-2BBe human enterocyte-like epithelial cells were obtained from the AMERICAN TYPE CULTURE COLLECTION (Manassas, Va.). Cells were routinely maintained at 37° C. in under a humidified atmosphere containing 8% CO2 in air. The culture medium was DMEM supplemented with 10% FBS, non-essential amino acids supplement (SIGMA-ALDRICH catalogue #M7145), sodium pyruvate (2 mM), streptomycin (0.1 mg/ml), penicillin G (100 U/ml) and human transferrin (0.01 mg/ml). The culture medium was changed 3 times per week.
Measurement of permeability of Caco-2 monolayers. Caco-2BBe cells were plated at a density of 5×10^4 cells/well on permeable filters (0.4 μm pore size) in 12-well bicameral chambers (TRANSWELL, COSTAR, Corning, N.Y.).
Briefly, the medium on the basolateral side was replaced with control medium or medium containing menadione (50 μM final). Medium containing FD4 (25 mg/ml) was applied to the apical chamber. In some cases, one of the gramicidin S-based compounds, XJB-5-131, also was added to the apical side at final concentrations of 0.1, 1, 10 or 100 μM. […] Permeability of the monolayers was expressed as a clearance (pL·h^−1·cm^−2), see Han, X. et al., Proinflammatory cytokines cause NO dependent and independent changes in expression and localization of tight junction proteins in intestinal epithelial cells, SHOCK 19:229-237 (2003). […]

**Q.** Which results are given for `CC(C)C[C@@H](/C=C/[C@H](Cc1ccccc1)C(=O)N1CCC[C@H]1C(=O)N[C@H](C(=O)N[C@@H](CCCNC(=O)OCc1ccccc1)C(=O)NC1CC(C)(C)N([O])C(C)(C)C1)C(C)C)NC(=O)OC(C)(C)C` [XJB-5-131]?
**A.** intracellular superoxide generation in MECs (MECs): completely inhibited; caspase 3 and 7 activity in ileal mucosa after hemorrhagic shock (caspases 3 and 7): significantly decreased; protection against menadione-induced hyperpermeability [1]: significant protection

Reference: patent US9402839B2, “Selective targeting agents for mitochondria” (University of Pittsburgh—Of the Commonwealth System of …, priority 2006, dated 2016)
